Patent US11065253B2, “Arylquinazolines” (Merck Patent GmbH, priority 2013, dated 2021)
Where two headings read alike, the source gives them in different places.

System: phospho-serine 2056 DNA-PK in HCT116 cells
Test: DNA-PK phosphorylation at serine 2056 (cellular), ELISA in bleomycin-treated HCT116 cells
Format: cell-based
Settings: cellular, HCT116 cells, 10 μM bleomycin, six hours, read-out: IC50 pDNA-PK
Experimental: HCT116 cells were cultivated at 37° C. and 10% CO2 in MEM alpha medium with 10% of foetal calf serum and 2 mM glutamine. The cells were detached from the base of the culture vessels with the aid of trypsin/EDTA, centrifuged off in centrifuge tubes, taken up in fresh medium, and the cell density was determined. 100,000 cells were sown in 1 ml of culture medium per cavity of a 24-well cell culture plate and cultivated overnight. Next day, 10 μM bleomycin (DNA intercalator and inductor of DNA double-strand breaks) and test substances in fresh culture medium were added to the cells, and these were cultivated for a further six hours. […] The 96-well ELISA plates were subsequently treated with a detection antibody (Abcam ab79444: total DNA-PK) and a streptavidin-HRP conjugate. The development of the enzymatic reaction was carried out with the aid of a chemiluminescent reagent, the chemiluminescence was measured with the aid of a Mithras LB940. The signals with the phospho-DNA-PK-specific antibody were standardised to the signal with the antibody against the total protein DNA-PKc. […] The DMSO control was used as blank.

Structure (SMILES): OC(c1ccc(Cl)nn1)c1cc(-c2ncnc3cc(N4CCOCC4)ccc23)c(F)cc1F (stereo not drawn) [Example 49, (6-Chloro-pyridazin-3-yl)-[2,4-difluoro-5-(7-morpholin-4-yl-quinazolin-4-yl)phenyl]-methanol]
- IC50 (Homo sapiens, HCT-116, 6 h): 0.5 to 5 µM

Structure (SMILES): CN(C)C(=O)c1ccc(C(O)c2cc(-c3ncnc4cc(N5CCOCC5)ccc34)c(F)cc2Cl)nn1 (stereo not drawn) [Example 50, 6-{[2-Chloro-4-fluoro-5-(7-morpholin-4-yl-quinazolin-4-yl)phenyl]-hydroxymethyl}-pyridazine-3-carboxylic acid dimethylamide]
- IC50 (Homo sapiens, HCT-116, 6 h): 10 to 30 µM

Structure (SMILES): OC(c1ccc2nccn2n1)c1cc(-c2ncnc3cc(N4CCOCC4)ccc23)c(F)cc1F (stereo not drawn) [Example 51, [2,4-Difluoro-5-(7-morpholin-4-yl-quinazolin-4-yl)phenyl]-imidazo[1,2-b]pyridazin-6-ylmethanol]
- IC50: < 0.5 µM

Structure (SMILES): OC(c1ccc(F)c(-c2ncnc3cc(N4CCOCC4)ccc23)c1)c1nccnc1Cl (stereo not drawn) [Example 54, (3-Chloro-pyrazin-2-yl)-[4-fluoro-3-(7-morpholin-4-yl-quinazolin-4-yl)phenyl]-methanol]
- IC50 (Homo sapiens, HCT-116, 6 h): < 0.5 µM

Structure (SMILES): O=C(O)c1ccc(C(O)c2cc(-c3ncnc4cc(N5CCOCC5)ccc34)c(F)cc2Cl)nn1 (stereo not drawn) [Example 55, 6-{[2-Chloro-4-fluoro-5-(7-morpholin-4-yl-quinazolin-4-yl)phenyl]-hydroxymethyl}-pyridazine-3-carboxylic acid]
- IC50 (Homo sapiens, HCT-116, 6 h): 10 to 30 µM

Structure (SMILES): OC(c1ccc2nccn2n1)c1cc(-c2ncnc3cc(N4CCOCC4)ccc23)c(F)cc1Cl (stereo not drawn) [Example 56, [2-Chloro-4-fluoro-5-(7-morpholin-4-yl-quinazolin-4-yl)phenyl]-imidazo[1,2-b]pyridazin-6-ylmethanol]
- IC50 (Homo sapiens, HCT-116, 6 h): 0.5 to 5 µM

Structure (SMILES): OC(c1ccc2nccn2n1)c1cc(-c2ncnc3cc(N4CCOCC4)ccc23)c(F)cc1Cl (stereo not drawn) [Example 57, [2-Chloro-4-fluoro-5-(7-morpholin-4-yl-quinazolin-4-yl)phenyl]-imidazo[1,2-b]pyridazin-6-ylmethanol]
- IC50: < 0.5 µM

Structure (SMILES): COC(=O)c1ccc(C(O)c2cc(-c3ncnc4cc(N5CCOCC5)ccc34)c(F)cc2Cl)nn1 (stereo not drawn) [Example 58, 6-{[2-Chloro-4-fluoro-5-(7-morpholin-4-yl-quinazolin-4-yl)phenyl]-hydroxymethyl}-pyridazine-3-carboxylic acid methyl ester]
- IC50 (Homo sapiens, HCT-116, 6 h): 5 to 10 µM

Structure (SMILES): COc1cnc(C(O)c2ccc(OC)c(-c3ncnc4cc(N5CCOCC5)ccc34)c2)cn1 (stereo not drawn) [Example 61, [4-methoxy-3-(7-morpholin-4-yl-quinazolin-4-yl)phenyl]-(5-methoxypyrazin-2-yl)methanol]
- IC50 (Homo sapiens, HCT-116, 6 h): 10 to 30 µM

Structure (SMILES): NC(=O)c1ccc(C(O)c2cc(-c3ncnc4cc(N5CCOCC5)ccc34)c(F)cc2Cl)nn1 (stereo not drawn) [Example 62, 6-{[2-Chloro-4-fluoro-5-(7-morpholin-4-yl-quinazolin-4-yl)phenyl]-hydroxymethyl}-pyridazine-3-carboxylic acid amide]
- IC50 (Homo sapiens, HCT-116, 6 h): 0.5 to 5 µM

Structure (SMILES): OC(c1ccc2nccn2n1)c1cc(-c2ncnc3cc(N4CCOCC4)ccc23)c(F)cc1Cl (stereo not drawn) [Example 63, [2-Chloro-4-fluoro-5-(7-morpholin-4-yl-quinazolin-4-yl)phenyl]-imidazo[1,2-b]pyridazin-6-ylmethanol]
- IC50: 0.5 to 5 µM

Structure (SMILES): OC(c1cc(-c2ncnc3cc(N4CCOCC4)ccc23)c(F)cc1Cl)c1nccnc1Cl (stereo not drawn) [Example 64, [2-Chloro-4-fluoro-5-(7-morpholin-4-yl-quinazolin-4-yl)phenyl]-(3-chloropyrazin-2-yl)-methanol]
- IC50 (Homo sapiens, HCT-116, 6 h): < 0.5 µM

Structure (SMILES): OC(c1ccc(F)c(-c2ncnc3cc(N4CCOCC4)ccc23)c1)c1cccnn1 (stereo not drawn) [Example 65, [4-Fluoro-3-(7-morpholin-4-yl-quinazolin-4-yl)phenyl]-pyridazin-3-ylmethanol]
- IC50 (Homo sapiens, HCT-116, 6 h): 0.5 to 5 µM

Structure (SMILES): COc1cnc(C(O)c2ccc(F)c(-c3ncnc4cc(N5CCOCC5)ccc34)c2)nc1 (stereo not drawn) [Example 66, [4-Fluoro-3-(7-morpholin-4-yl-quinazolin-4-yl)phenyl]-(5-methoxypyrimidin-2-yl)methanol]
- IC50 (Homo sapiens, HCT-116, 6 h): 10 to 30 µM

Structure (SMILES): CN(C)c1ccc(C(O)c2ccc(F)c(-c3ncnc4cc(N5CCOCC5)ccc34)c2)nn1 (stereo not drawn) [Example 68, (6-Dimethylamino-pyridazin-3-yl)-[4-fluoro-3-(7-morpholin-4-yl-quinazolin-4-yl)phenyl]-methanol]
- IC50 (Homo sapiens, HCT-116, 6 h): 5 to 10 µM

Structure (SMILES): Cc1ccc(C(O)c2ccc(F)c(-c3ncnc4cc(N5CCOCC5)ccc34)c2)nn1 (stereo not drawn) [Example 70, [4-Fluoro-3-(7-morpholin-4-yl-quinazolin-4-yl)phenyl]-(6-methylpyridazin-3-yl)methanol]
- IC50 (Homo sapiens, HCT-116, 6 h): 0.5 to 5 µM

Structure (SMILES): COc1ccc([C@H](O)c2ccc(F)c(-c3ncnc4cc(N5CCOCC5)ccc34)c2)nn1 [Example 71, (R)-[4-Fluoro-3-(7-morpholin-4-yl-quinazolin-4-yl)phenyl]-(6-methoxypyridazin-3-yl)methanol]
- IC50 (Homo sapiens, HCT-116, 6 h): 0.5 to 5 µM

Structure (SMILES): COc1ccc([C@@H](O)c2ccc(F)c(-c3ncnc4cc(N5CCOCC5)ccc34)c2)nn1 [Example 72, (S)-[4-Fluoro-3-(7-morpholin-4-yl-quinazolin-4-yl)phenyl]-(6-methoxypyridazin-3-yl)methanol]
- IC50 (Homo sapiens, HCT-116, 6 h): 0.5 to 5 µM

Structure (SMILES): COc1ccc(C(OC)c2ccc(F)c(-c3ncnc4cc(N5CCOCC5)ccc34)c2)nn1 (stereo not drawn) [Example 73, 4-{2-Fluoro-5-[methoxy-(6-methoxy-pyridazin-3-yl)methyl]phenyl}-7-morpholin-4-yl-quinazoline]
- IC50 (Homo sapiens, HCT-116, 6 h): 0.5 to 5 µM

Structure (SMILES): COc1ccc(C(O)c2ccc(F)c(-c3ncnc4cc(N5CCOCC5)ccc34)c2)nn1 (stereo not drawn) [Example 74, [4-Fluoro-3-(7-morpholin-4-yl-quinazolin-4-yl)phenyl]-(6-methoxypyridazin-3-yl)methanol]
- IC50 (Homo sapiens, HCT-116, 6 h): < 0.5 µM

Structure (SMILES): O=c1ccc(C(O)c2ccc(F)c(-c3ncnc4cc(N5CCOCC5)ccc34)c2)n[nH]1 (stereo not drawn) [Example 76, 6-{[4-Fluoro-3-(7-morpholin-4-yl-quinazolin-4-yl)phenyl]-hydroxymethyl}-2H-pyridazin-3-one]
- IC50 (Homo sapiens, HCT-116, 6 h): 0.5 to 5 µM

Structure (SMILES): OC(c1ccc(F)c(-c2ncnc3cc(N4CCOCC4)ccc23)c1)c1c(F)cncc1Cl (stereo not drawn) [Example 77, (3-Chloro-5-fluoro-pyridin-4-yl)-[4-fluoro-3-(7-morpholin-4-yl-quinazolin-4-yl)phenyl]-methanol]
- IC50 (Homo sapiens, HCT-116, 6 h): < 0.5 µM

Structure (SMILES): Cc1nccnc1C(O)c1ccc(F)c(-c2ncnc3cc(N4CCOCC4)ccc23)c1 (stereo not drawn) [Example 78, [4-Fluoro-3-(7-morpholin-4-yl-quinazolin-4-yl)phenyl]-(3-methylpyrazin-2-yl)-methanol]
- IC50 (Homo sapiens, HCT-116, 6 h): < 0.5 µM

Structure (SMILES): CCOc1cnnc(C(O)c2ccc(F)c(-c3ncnc4cc(N5CCOCC5)ccc34)c2)c1 (stereo not drawn) [Example 79, (5-Ethoxypyridazin-3-yl)-[4-fluoro-3-(7-morpholin-4-yl-quinazolin-4-yl)phenyl]-methanol]
- IC50 (Homo sapiens, HCT-116, 6 h): 5 to 10 µM

Structure (SMILES): OC(c1ccc(F)c(-c2ncnc3cc(N4CCOCC4)ccc23)c1)c1ncccc1C(F)(F)F (stereo not drawn) [Example 80, [4-Fluoro-3-(7-morpholin-4-yl-quinazolin-4-yl)-phenyl]-(3-trifluoro-methylpyridin-2-yl)-methanol]
- IC50 (Homo sapiens, HCT-116, 6 h): 0.5 to 5 µM

Structure (SMILES): OC(c1ccc(F)c(-c2ncnc3cc(N4CCOCC4)ccc23)c1)c1ncccc1OC(F)F (stereo not drawn) [Example 81, (3-Difluoromethoxy-pyridin-2-yl)-[4-fluoro-3-(7-morpholin-4-yl-quinazolin-4-yl)-phenyl]methanol]
- IC50 (Homo sapiens, HCT-116, 6 h): < 0.5 µM

Structure (SMILES): Cc1nccnc1[C@@H](O)c1ccc(F)c(-c2ncnc3cc(N4CCOCC4)ccc23)c1 [Example 82, (S)-[4-Fluoro-3-(7-morpholin-4-yl-quinazolin-4-yl)-phenyl]-(3-methyl-pyrazin-2-yl)methanol]
- IC50 (Homo sapiens, HCT-116, 6 h): 0.5 to 5 µM
